The values below come from patent publication US4588525A, “Prodrug compounds for dermal application” (Molecular Biosystems, Inc., priority 1984, dated 1986).

The test system of one series is human lung fibroblasts. Briefly: Inhibition of growth of human lung fibroblasts in culture. The series is classed as cell-based. The note with it: for pIC50: Homo sapiens, Fibroblast, growth inhibition 50%, usually 3-4 days, 10^4 cells/35 mm dish, Coulter counter, read-out: ID50 (the source's name). How it is done: Drugs were evaluated by their ability to inhibit the growth of human lung fibroblasts in culture. Human lung fibroblasts were grown in Eagle's Minimal Essential Media (EMEM) which contained 10% fetal calf serum, 1X non-essential amino acids, and 250 units penicillin and 250 μg streptomycin/ml. Stock cultures of the cells were grown on 100 mm culture plates. For testing purposes, cells were removed from the stock plates with 3 mls trypsin/versene and after appropriate dilution in the culture medium were plated onto 35 mm dishes. Typically, cells were subcultured at 10^4 cells/35 mm dish in 1.5 mls of medium and allowed to attach for 24 hours before the addition of drugs. Triplicate plates were treated with drugs over a wide concentration range. In some cases, it was necessary to dissolve stock solutions of the drugs with 50% ethanol. In such cases, appropriate controls were included to assure that the ethanol had no adverse effects. In all cases, untreated triplicate control plates were employed in order to determine the cell population at the time of drug addition and at the time of experiment ccmpletion (usual 3-4 days). The number of cells on the test and control plates was determined by first removing the medium by aspiration followed by gentle washing with 1 ml phosphate buffered saline. Trypsin/versene (0.5 ml) was then added and the plates incubated at 37° C. for up to 15 minutes or until the cells became detached. One milliliter of EMEM which contained 1X non-essential amino acids was then added in order to neutralize the action of trypsin. The cells were then diluted into ISOTON II (Curtin Matheson Scientific, Houston, Tex.) and counted on a Coulter counter (Coulter Electronics, Hialeah, Fla.) according to the Coulter counter owner's manual.

The conditions of series [1]: in vivo; cited from earlier work.
The conditions of series [2]: topical, unless accompanied by oral nicotinamide; cited from earlier work.
Another series has as its system cancer. To be noted: use questionable due to the CNS side effects; cited from earlier work.
The next series deals with cellular enzymes. The series is described as follows: Conversion by cellular enzymes to active 6-aminonicotinamide (interpretation of Table A). The series is classed as cell-based, human. From the text: Such cleavages might be exploited to retain local activity but to eliminate systemic toxicity.

pIC50: −log10 of the molar value.

For the molecule `NC(=O)c1ccc(N)nc1` [6-Aminonicotinamide, 6-aminonicotinamide], the pIC50 in the series on human lung fibroblasts was 5.70. Also, the “effectiveness against psoriasis compared with methotrexate” value in series [1] is listed as “more effective against psoriasis than methotrexate”. In addition, the “central nervous system toxicity (CNS)” value in series [2] is “a central nervous system toxicity (CNS) may result”. Besides, the anti-cancer activity entry in the series on cancer is “anti-cancer activity”.

For the molecule `CCOC(=O)CCCCC(=O)Nc1ccc(C(N)=O)cn1` [6-Aminonicotinamide-N^6 --apidic acid ethyl ester], in the series on human lung fibroblasts, the pIC50 is 4.52.

For the molecule `CCCCOC(=O)CCC(=O)Nc1ccc(C(N)=O)cn1` [6-Aminonicotinamide-N^6 --succinate butyl ester], in the series with human lung fibroblasts, the pIC50 was 4.70.

Consider `CCOC(=O)CCC(=O)Nc1ccc(C(N)=O)cn1` [6-Aminonicotinamide-N^6 --succinate ethyl ester], for which, in the series with human lung fibroblasts, the pIC50 was 5.30.

As for `CCCCCCOC(=O)CCC(=O)Nc1ccc(C(N)=O)cn1` [6-Aminonicotinamide-N^6 --succinate hexyl ester], the pIC50 in the series on human lung fibroblasts was 4.70.

In the case of `COC(=O)CCC(=O)Nc1ccc(C(N)=O)cn1` [6-Aminonicotinamide-N^6 --succinate methyl ester], the pIC50 in the series on human lung fibroblasts was 4.70.

Turning to `NC(=O)c1ccc(NC(=O)CCC(=O)O)nc1` [6-Aminonicotinamide-N^6 --succinic acid, 6-aminonicotinamide-N^6-succinic acid], the pIC50 with human lung fibroblasts is 2.70. The “activity (inhibition of cell growth), in words” value with human lung fibroblasts (interpretation of Table A) was “essentially inactive”.

As for `NC(=O)c1ccc(NC(=O)CCC(=O)N2CCCCC2)nc1` [6-Aminonicotinamide-N^6-succinyl piperidate], in the series with cellular enzymes, the “conversion by cellular enzymes to active 6-aminonicotinamide” value is “readily converted” and the “efficiency of conversion compared with the other alkyl or ester analogues” value is “more efficient”.

For `NC(=O)c1ccc(NC(=O)CCC(=O)N2CCOCC2)nc1` [6-Aminonicotinamide-N^6-succinylmorpholidate], in the series on cellular enzymes, the “conversion by cellular enzymes to active 6-aminonicotinamide” value is “readily converted” and the “efficiency of conversion compared with the other alkyl or ester analogues” value is listed as “more efficient”.

For the molecule `CCCCCCC(=O)Nc1ccc(C(N)=O)cn1` [N^6 --heptanoyl-6-aminonicotinamide], in the series with human lung fibroblasts, the pIC50 was 4.70.
